The source of these data is patent US10785975B2, “Water and feed antimicrobial preservative” (priority 2009, dated 2020).

Series [1] deals with Salmonella typhimurium. The experiment in a line: Example 2: effect of carbon chain length of individual organic acids on antimicrobial activity in water. It is filed as cell-based. The arrangement: MIC at 4 HR / MIC at 24 FIR: unit not given here. The settings on record: for MIC at 4 HR / MIC at 24 FIR: Minimum Inhibitory Concentration of Organic Acids against Salmonella, by linear regression; for MIC at 24 FIR: 24 hours; for killing at […] / killing at 0.05 % / killing at 0.075 % / killing at 0.1 %: Salmonella enterica, TYPHIMURIUM
The procedure: 100 ul of a nutrient broth culture of Salmonella typhimurium was added to each dilution tube. After addition, tubes were vortexed and allowed to stand. At 4 and 24 hours after addition of the inoculum, 100 ul of the solution was plated on agar (triplicate plates). Plates were incubated at 37° C. for 24 hours prior to enumeration. The minimum effective dose of each acid was be determined by linear regression: […]

The test system of another series is M. gypseum. The note with it: acids tested independently, cited from earlier work.
How the values of series [2] were obtained:
Pelargonic acid is a naturally occurring fatty acid found in almost all species of animals and plants. Because it contains nine carbon atoms, it is also called nonanoic acid has the chemical formula CH3(CH2)7COOH. It is found at low levels in many common foods and is readily broken down in the environment. It is an oily colorless fluid that solidifies at lower temperatures.
In this experiment, the effect of free fatty acids was evaluated. […] The pH of the deionized water solutions was recorded and any problems with solubility noted
(§1) Myristic acid (5%, 10% and 20%) diluted in propionic acid was tested to determine its effectiveness against salmonella in feed.

Another series concerns C. irritans. The settings on record: cited from earlier work.
The subject of series [3] is Salmonella typhimurium. The experiment in a line: Example 3: buffered organic acid mixtures with pelargonic acid in water. The settings on record: for MIC at 4 HR / MIC at 24 HR: Minimum Inhibitory Concentration of Pelargonic when mixed with acetic or propionic acid (buffered to pH 3), by linear regression. It is filed as cell-based. As to the method: Procedure: Propionic and acetic acids were buffered with ammonium hydroxide to a pH of 3 and combined with pelargonic in the ratios above. Acid content of the buffered solutions was determined by weight to weight ratio calculation (weight of acid/total weight of buffered solution) and adjusted to provide an equal acid value for each treatment. […] The pHs of the deionized water solutions were recorded and any problems with solubility noted.
100 ul of a nutrient broth culture of Salmonella typhimurium was added to each dilution tube. After addition, tubes were vortexed and allowed to stand. At 4 and 24 hours after addition of the inoculum, 100 ul of the solution was plated on Standard Plate agar (triplicate plates). Plates were incubated at 37° C. for 24 hours prior to enumeration. The minimum effective dose of each acid was determined by linear regression.

The conditions of series [4]: general description in background; cited from earlier work.
Series [5] relates to Salmonella typhimurium. Briefly: Study 5: propionic, acetic and pelargonic acids alone or in combination in water. It counts as cell-based. The procedure: Propionic, acetic and pelargonic acids by themselves or in combination as listed were added to sterile deionized water to make at a 0.05%, 0.04%, 0.03%, 0.02% and 0.01% total acid solutions. The pHs of the deionized water solutions were recorded and any problems with solubility noted. 100 ul of a nutrient broth culture of Salmonella typhimurium was added to each dilution tube. After addition, tubes were vortexed and allowed to stand. At 24 hours after addition of the inoculum, 100 ul of the solution was plated on Standard Plate agar (triplicate plates). Plates were incubated at 37° C. for 24 hours prior to enumeration.

Series [6] has as its system Salmonella typhimurium. Briefly: Study 7: myristic acid in propionic acid against salmonella in poultry feed. It is filed as cell-based. The note with it: Myristic/Propionic acids, 24 hours after treatment. As to the method: as §1
(§2) Commercial poultry feed amended with Salmonella typhimurium was treated with 1 or 3 kg/MT of the solutions listed below. Twenty four hours after treatment, 10 gr of feed was added to 90 ml Butterfield buffer, mixed and then 100 ul of the solution was plated on Standard Plate agar (triplicate plates). Plates were incubated at 37° C. for 24 hours prior to enumeration.

Series [7] relates to Salmonella typhimurium. The experiment in a line: Study 8: lauric acid in propionic acid against salmonella in poultry feed. The note with it: Lauric/Propionic acids, 24 hours after treatment. It counts as cell-based. The procedure: Lauric acid (5%, 10%, 20%) diluted with propionic acid was tested to determine its effectiveness against salmonella in feed.
[…] Twenty four hours after treatment, 10 gr of feed was added to 90 ml Butterfield buffer, mixed and then 100 ul of the solution was plated on Standard Plate agar (triplicate plates). Plates were incubated at 37° C. for 24 hours prior to enumeration.

Series [8] relates to Salmonella typhimurium. The experiment in a line: Study 6: capric acid in acetic or propionic acid against salmonella in poultry feed. It is filed as cell-based. The settings on record: Capric/Propionic acids, 24 hours after treatment. As to the method: as §2
The mark [9] stands for this setting: Product Conc. 0.025 (% total acid solution in water).
The mark [10] stands for this setting: Product Conc. 0.05 (% total acid solution in water).
The mark [11] stands for this setting: Product Conc. 0.075 (% total acid solution in water).
Setting [12] is: Product Conc. 0.1 (% total acid solution in water).
The mark [13] stands for this setting: Test Product 0.01 % total acid solution in water.
Where [14] appears, read: Test Product 0.02 % total acid solution in water.
[15] abbreviates: Test Product 0.04 % total acid solution in water.
The mark [16] stands for this setting: Test Product 0.05 % total acid solution in water.

Like-named read-outs stand apart in the source and are kept apart here.

Take `CCCCCCCCC(=O)O` [Pelargonic acid]: the “MIC at 4 HR” value with Salmonella typhimurium [1] (4 hr) was 0.063; in the series with Salmonella typhimurium [3], less than 0.025. Moreover, the “MIC at 24 FIR” value against Salmonella typhimurium [1] is less than 0.025. In addition, the “minimum inhibitory concentration (MTC) to prevent growth of M. gypseum” value is 50 µg/mL in the series with M. gypseum (in liquid media) and 40 µg/mL with M. gypseum (on solid media). In addition, the solubility in water result is reported as “not soluble in water” in series [2] and “almost insoluble in water” in series [4]. Further, the “controlling the growth of the parasite C. irritans” value in the series with C. irritans is “effective in controlling the growth”. Moreover, the “MIC at 24 HR” value in the series with Salmonella typhimurium [3] is on record as less than 0.025. In addition, the “Salmonella at time Interval 4 hr % reduction” value in the series on Salmonella typhimurium [3] (setting [9]), in the series on Salmonella typhimurium [3] (setting [10]), in the series on Salmonella typhimurium [3] (setting [11]) and with Salmonella typhimurium [3] (setting [12]) was 100% in each case. The “Salmonella at time Interval 4 hr cfu/g” value in the series with Salmonella typhimurium [3] (setting [9]), in the series with Salmonella typhimurium [3] (setting [10]), in the series with Salmonella typhimurium [3] (setting [11]) and in the series on Salmonella typhimurium [3] (setting [12]) was 0 cfu/g each time. Besides, the “Salmonella at time Interval 24 hr % reduction” value in the series on Salmonella typhimurium [3] (setting [9]), in the series on Salmonella typhimurium [3] (setting [10]), with Salmonella typhimurium [3] (setting [11]) and with Salmonella typhimurium [3] (setting [12]) was 100% throughout. The “Salmonella at time Interval 24 hr cfu/g” value in the series on Salmonella typhimurium [3] (setting [9]), in the series with Salmonella typhimurium [3] (setting [10]), in the series with Salmonella typhimurium [3] (setting [11]) and in the series with Salmonella typhimurium [3] (setting [12]) was 0 cfu/g in each case. Further, the “Salmonella 24 hr afterTreatment (cfu/g)” value was determined as 1400 cfu/g in the series on Salmonella typhimurium [5] (setting [13]), 1300 cfu/g with Salmonella typhimurium [5] (setting [14]), 1500 cfu/g in the series with Salmonella typhimurium [5] (setting [15]) and 850 cfu/g in the series with Salmonella typhimurium [5] (setting [16]).
With `CCC(=O)O` [Propionic acid], the “MIC at 4 HR” value against Salmonella typhimurium [1] (4 hr) is 0166; in the series on Salmonella typhimurium [3], 0.179. In addition, the “MIC at 24 FIR” value against Salmonella typhimurium [1] came out at 0.066. Moreover, the “Salmonella at time Interval 4 hr cfu/g” value in the series with Salmonella typhimurium [1] (Product Conc. 0.025 (% acid solution in water), 4 hr) was 1167 cfu/g; in the series with Salmonella typhimurium [1] (Product Conc. 0.05 (% acid solution in water), 4 hr), 900 cfu/g; in the series with Salmonella typhimurium [1] (Product Conc. 0.075 (% acid solution in water), 4 hr), 877 cfu/g; in the series with Salmonella typhimurium [1] (Product Conc. 0.1 (% acid solution in water), 4 hr) it was 773 cfu/g. In addition, the “Salmonella at time Interval 24 hr cfu/g” value in the series with Salmonella typhimurium [1] (Product Conc. 0.025 (% acid solution in water), 24 hr) came out at 170 cfu/g; in the series on Salmonella typhimurium [1] (Product Conc. 0.05 (% acid solution in water), 24 hr) it was 40 cfu/g; in the series on Salmonella typhimurium [1] (Product Conc. 0.075 (% acid solution in water), 24 hr), 25 cfu/g; in the series with Salmonella typhimurium [1] (Product Conc. 0.1 (% acid solution in water), 24 hr), 30 cfu/g. The killing at […] in the series with Salmonella typhimurium [1] (Product Conc. 0.025 (% acid solution in water), 4 hr, read-out: Salmonella at time Interval 4 hr % reduction) turned out to be 27%; with Salmonella typhimurium [1] (Product Conc. 0.025 (% acid solution in water), 24 hr, read-out: Salmonella at time Interval 24 hr % reduction), 90%. Moreover, the killing at 0.05 % is 44% with Salmonella typhimurium [1] (Product Conc. 0.05 (% acid solution in water), 4 hr, read-out: Salmonella at time Interval 4 hr % reduction) and 98% in the series with Salmonella typhimurium [1] (Product Conc. 0.05 (% acid solution in water), 24 hr, read-out: Salmonella at time Interval 24 hr % reduction). Besides, the killing at 0.075 % in the series with Salmonella typhimurium [1] (Product Conc. 0.075 (% acid solution in water), 4 hr, read-out: Salmonella at time Interval 4 hr % reduction) was 45%; in the series on Salmonella typhimurium [1] (Product Conc. 0.075 (% acid solution in water), 24 hr, read-out: Salmonella at time Interval 24 hr % reduction), 99%. The killing at 0.1 % stood at 52% with Salmonella typhimurium [1] (Product Conc. 0.1 (% acid solution in water), 4 hr, read-out: Salmonella at time Interval 4 hr % reduction) and 98% in the series on Salmonella typhimurium [1] (Product Conc. 0.1 (% acid solution in water), 24 hr, read-out: Salmonella at time Interval 24 hr % reduction). Further, the “% Reduction” value is on record as 90.08% with Salmonella typhimurium [6] (1 kg/MT); 99.42% in the series with Salmonella typhimurium [6] (3 kg/MT); 92.3% in the series on Salmonella typhimurium [7] (1 kg/MT); 100.0% in the series on Salmonella typhimurium [7] (3 kg/MT); 0% in the series on Salmonella typhimurium [8] (1 kg/ton); 0% with Salmonella typhimurium [8] (3 kg/ton). Further, the cfu/g in the series with Salmonella typhimurium [6] (1 kg/MT) stood at 3967 cfu/g; with Salmonella typhimurium [6] (3 kg/MT), 233 cfu/g; with Salmonella typhimurium [7] (1 kg/MT) it was 2567 cfu/g; in the series with Salmonella typhimurium [7] (3 kg/MT) it was 0 cfu/g; with Salmonella typhimurium [8] (1 kg/ton), 4633 cfu/g; in the series with Salmonella typhimurium [8] (3 kg/ton) it was 5633 cfu/g. For the same compound, in the series with Salmonella typhimurium [3], the “MIC at 24 HR” value was determined as 0.064. For the same compound, the “Salmonella 24 hr afterTreatment (cfu/g)” value in the series with Salmonella typhimurium [5] (setting [13]) was 1200 cfu/g; in the series on Salmonella typhimurium [5] (setting [14]), 870 cfu/g; in the series on Salmonella typhimurium [5] (Test Product 0.03 % total acid solution in water), 810 cfu/g; in the series with Salmonella typhimurium [5] (setting [15]) it was 910 cfu/g; in the series with Salmonella typhimurium [5] (setting [16]), 560 cfu/g.
Take `CCCCCCCCCCCC(=O)O` [lauric, Lauric acid]: in [2], the solubility in water result was “not soluble in water”.
